Results taken from US20240398819A1 (Rhode Island Hospital, priority 2023, published 2024).

Key:
[1] = tested on: fibrocytes from explanted human anterior cruciate ligament (ACL) specimens; assay: Effects of relaxin-2 antagonist / receptor antagonist on cultured ACL cells from patients with ACL reconstruction (RT-PCR); assay type: cell-based; conditions: Folic Acid 10 μg/ml, NADH 100 μg/ml
Procedure: Measurements of expressions of MMP13, collagen 1A, collagen 3A, MMP3, and MMP1 in patient ACL tissues were conducted (FIG. 5). Biopsy tissues of the ACL from 20 patients (10 male and 10 female) who underwent surgeries for ACL reconstruction were harvested. The patients' ages ranged from 16 to 61 years, with equal numbers of males and females. The protocol for patient enrollment was approved by the IRB committee at our institution. […] After treatment, cells were lysed and analyzed for the expressions of type I collagen, type III collagen, MMP1, MMP3, and MMP13 using quantitative real-time polymerase chain reaction (RT-PCR). MMP13 expression (FIG. 5A); collagen 1A expression (FIG. 5B); collagen 3A expression (FIG. 5C); MMP3 expression (FIG. 5D); and MMP1 expression (FIG. 5E), all present the innovation. The protocol for patient enrollment was approved by the IRB committee at Rhode Island Hospital. GraphPad PRISM 8 software was used to perform all statistical analyses. Results were presented as mean+standard error of the mean (SEM) of different samples and considered significant when p<0.05. A t-test was used to compare any two groups, *p<0.05, **p<0.01, ***p<0.001 compared to their individual control group; ##p<0.01, compared to their individual relaxin-2 group.
Measurements of expressions of MMP13, collagen 1A, collagen 3A, MMP3, and MMP1 in patient ACL tissues were conducted (FIG. 5). Biopsy tissues of the ACL from 20 patients (10 male and 10 female) who underwent surgeries for ACL reconstruction were harvested. The patients' ages ranged from 16 to 61 years, with equal numbers of males and females. The protocol for patient enrollment was approved by the TRB committee at our institution.
After treatment, cells were lysed and analyzed for the expressions of type I collagen, type III collagen, MMP1, MMP3, and MMP13 using quantitative real-time polymerase chain reaction (RT-PCR). FIG. 5 provides expressions of MMP13, collagen 1A, collagen 3A, MMP3, and MMP1 in patient ACL tissues. (FIG. 5A) MMP13 expression; (FIG. 5B) collagen 1A expression; (FIG. 5C) collagen 3A expression; (FIG. 5D) MMP3 expression; (FIG. 5E) MMP1 expression. In FIG. 5, the protocol for patient enrollment was approved by the IRB committee at Rhode Island Hospital. GraphPad PRISM 8 software was used to perform all statistical analyses. Results were presented as mean+standard error of the mean (SEM) of different samples, and considered significant when p<0.05. A t-test was used to compare any two groups, *p<0.05, **p<0.01, ***p<0.001 compared to their individual control group; ##p<0.01, compared to their individual relaxin-2 group.

[2] = tested on: patient ACL cells; assay: MMP gene expression (quantitative real-time RT-PCR) in cultured patient ACL cells treated with relaxin-2; assay type: cell-based, human
Procedure: Methods: Biopsy tissues of the ACL in the knee were collected from 20 patients with ACL reconstruction (ages ranging from 16 years to 61 years old, 10 males and 10 females). The normal ACLs were obtained from the rejected human knee osteochondral grafts from the Musculoskeletal Transplant Foundation (MTF) or the donors from MedCure (ages ranging from 24 years to 84 years old, 4 male and 4 females) were used as control samples. Immunohistochemistry was performed to detect the expression of RXFP2 and apoptosis. The number of RXFP2 positive and apoptotic positive cells were counted from six different fields for each patient. ACL cells were cultured in vitro, then cells were treated with relaxin-2 at different concentrations. After treatment, cells were lysed and analyzed for the expressions of MMP1 and MMP13 using quantitative real-time polymerase chain reaction. The protocol for patient enrollment was approved by the IRB committee at Rhode Island Hospital. GraphPad PRISM 8 software was used to perform all statistical analyses. Results were presented as mean±standard error of the mean (SEM) of different samples. Data were examined by one-way analysis of variance (ANOVA) with Tukey post-hoc multiple comparison. An unpaired t-test was used to compare any two groups. A value of p<0.05 was considered to be statically significant.
Patient ACL tissues were minced and digested with 1.0 mg/mL of type II collagenase at 37° C. at 5% CO2 in 2 mL Dulbecco's modified Eagle medium F12 (DMEM/F12, Gibco) containing 1% antibiotic-antimycotic (Gibco) for 12 hours. ACL cells were then filtered through a […] nylon mesh filter and collected by centrifugation. ACL cells were plated at a density of 1×10^5 cells/cm^2 in DMEM/F12 media supplemented with 10% fetal bovine serum (FBS, Gibco) and 1% antibiotic-antimycotic in 20 cm petri dishes for passage one. The media was changed twice a week. […]
RNA was isolated using TRIzol reagent and RNeasy Mini Kit from cultured ACL cells. RNA concentrations and purity were evaluated using a Nanodrop spectrophotometer (Thermo Scientific, Wilmington, DE, USA). A total of 1 μg of sample RNA was reverse transcribed using the Quantitect RT Kit (Qiagen, cDNA was synthesized from RNA using the iScript cDNA synthesis kit (Bio-Rad). RNA concentrations and purity were evaluated using a Nanodrop spectrophotometer (Thermo Scientific, Wilmington, DE, USA). Exactly 500 ng DNA was used as the template for real-time PCR analyses. Quantitative PCR reactions were performed using SYBR Green Fast Mix in a Bio-Rad real-time PCR machine. All Taqman primer and probe mixes were from Thermo Fisher Scientific (Waltham, MA, USA). Changes in the gene expressions of MMP1 and MMP13 were measured, which were normalized to GAPDH.

[3] = tested on: patient ACL cells; assay: cAMP level (ELISA) in patient ACL cells after relaxin-2 treatment; assay type: cell-based, human; conditions: male and female ACL cells
Procedure: The detection of cAMP in samples was conducted using Abcam's cAMP Complete in vitro competitive Enzyme-Linked Immunosorbent Assay (ELISA) kit. Patient samples were first thawed from −80° C. and added to a 10% protease inhibitor in RIPA buffer (Thermo Scientific) solution for cell lysis. Each sample was then pipetted up and down 10 times with a syringe every 10 minutes over the course of 30 minutes. Next, the samples were centrifuged at 14,000 RPM for 5 minutes. The supernatant was then extracted from the pellet and stored at −80° C.
Following cell lysis and supernatant extraction, the total protein concentration of the samples was determined using a BCA protein assay. Albumin standards were prepared with the RIPA buffer and protease inhibitor. […] Standards and samples were then loaded in a 96 well plate with BCA reagent and was read in a plate reader at 570 nm to determine overall protein concentrations in samples. The concentrations of cAMP were determined using Abcam's ELISA kit. […] Stop solutions were added, and the plate was read at 405 nm with correction between 570 nm and 590 nm to determine cAMP concentrations. cAMP concentrations in pmol/mg were calculated by dividing the cAMP concentrations in pmol/mL by the total protein concentrations from the BCA protein assay in mg/mL.

[4] = 48 hour intravenous infusion, 30 μg/kg/day; compared with placebo group; cited from earlier work
[5] = tested on: ACL cells; assay: Vitamin D effects on type I collagen and MMP13 gene expression in cultured ACL cells from patients (RT-PCR); assay type: cell-based, human; conditions: 3 days; for Type I collagen expression: vitamin D 1, 10 and 100 nmol/L
Procedure: Biopsy tissues of the ACL in the knee were collected from 20 patients with ACL reconstruction (ages ranging from 16 years to 61 years old, 10 males and 10 females). The ACL cells were cultured in vitro and treated with vitamin D at different concentrations for 3 days. Cells were then lysed and analyzed for expressions of type I collagen and MMP13 genes using quantitative real-time polymerase chain reaction. The protocol for patient enrollment was approved by the IRB committee at Rhode Island Hospital. GraphPad PRISM 8 software was used to perform all statistical analyses. Results were presented as mean±standard error of the mean (SEM) of different samples and considered significant when p<0.05. A t-test was used to compare any two groups. See Appendix II for data and further discussion.

[6] = male ACL cells, relaxin-2 treatments vs control groups

Nc1nc2ncc(CNc3ccc(C(=O)N[C@@H](CCC(=O)O)C(=O)O)cc3)nc2c(=O)[nH]1 [Folic acid]
MMP-13 expression [1]: significant decrease
collagen 1A expression [1]: significant increases
collagen 3A expression [1]: significant increases

NC(=O)C1=CN([C@@H]2O[C@H](COP(=O)(O)OP(=O)(O)OC[C@H]3O[C@@H](n4cnc5c(N)ncnc54)[C@H](O)[C@@H]3O)[C@@H](O)[C@H]2O)C=CC1 [NADH, nicotinamide adenine dinucleotide hydride]
MMP-13 expression [1]: significant decrease
collagen 1A expression [1]: significant increases
collagen 3A expression [1]: significant increases

relaxin-2
MMP13 expression ([2]; female ACL cells, 10 ng/mL of relaxin-2, vs untreated controls): increased
MMP1 expression ([2]; female ACL cells, 100 ng/mL of relaxin-2, vs untreated controls): increased
MMP1 expression [2, 6]: didn't significant change
MMP3 expression [2, 6]: didn't significant change
cAMP levels [3]: couldn't change

serelaxin
180-day mortality [4]: improvement
short-term dyspnea scores [4]: improvement

vitamin D
MMP13 gene expression ([5]; female cells, vitamin D 1 nmol/L): increased
MMP13 gene expression ([5]; female cells, vitamin D 10 nmol/L): reduced
Type I collagen expression ([5]; female cells): increased
MMP13 gene expression ([5]; male cells, vitamin D 1 nmol/L): increased
MMP13 gene expression ([5]; male cells, vitamin D 100 nmol/L): reduced
Type I collagen expression ([5]; male cells): not observed
